Experimental data taken from ChEMBL document CHEMBL5465560, “Selectivity Literature for EUbOPEN Chemogenomic Library” (2024).

Columns and labels:
[1] = target: cAMP-dependent protein kinase catalytic subunit beta (Homo sapiens) (UniProt P22694); assay: Selectivity interaction (KinomeScan (DiscoverX)) EUB0000666a PRKACB; conditions: at 10 µM
[2] = target: Serine/threonine-protein kinase/endoribonuclease IRE1 (Homo sapiens) (UniProt O75460); assay: Selectivity interaction (KinomeScan (DiscoverX)) EUB0000229b ERN1; conditions: at 10 µM
[3] = target: Bone morphogenetic protein receptor type-1B (Homo sapiens, UniProt O00238); assay: Selectivity interaction (KinomeScan (DiscoverX)) EUB0001079a BMPR1B; conditions: at 1 µM
[4] = target: T1, Serine/threonine-protein kinase STK11 (Homo sapiens) (UniProt Q15831); assay: Selectivity interaction (KinomeScan (DiscoverX)) EUB0001079a STK11; conditions: at 1 µM
T1 sequence (whole entry): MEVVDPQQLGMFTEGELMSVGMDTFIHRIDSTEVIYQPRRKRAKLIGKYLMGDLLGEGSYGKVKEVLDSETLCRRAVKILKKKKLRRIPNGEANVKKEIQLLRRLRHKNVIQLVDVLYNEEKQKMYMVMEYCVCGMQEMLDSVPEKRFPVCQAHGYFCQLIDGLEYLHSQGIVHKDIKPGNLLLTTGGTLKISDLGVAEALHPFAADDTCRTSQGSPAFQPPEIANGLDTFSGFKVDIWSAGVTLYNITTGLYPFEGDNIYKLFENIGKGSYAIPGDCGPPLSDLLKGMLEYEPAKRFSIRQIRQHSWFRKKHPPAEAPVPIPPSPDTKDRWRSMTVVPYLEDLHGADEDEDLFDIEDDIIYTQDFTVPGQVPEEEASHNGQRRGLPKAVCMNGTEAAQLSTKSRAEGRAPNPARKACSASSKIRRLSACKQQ

[5] = target: Sodium-dependent serotonin transporter (Homo sapiens, UniProt P31645); assay: Selectivity interaction (GPCR panel (PDSP screen)) EUB0001079a SLC6A4; conditions: at 10 µM
Sodium-dependent serotonin transporter, sequence (P31645 whole entry, looked up): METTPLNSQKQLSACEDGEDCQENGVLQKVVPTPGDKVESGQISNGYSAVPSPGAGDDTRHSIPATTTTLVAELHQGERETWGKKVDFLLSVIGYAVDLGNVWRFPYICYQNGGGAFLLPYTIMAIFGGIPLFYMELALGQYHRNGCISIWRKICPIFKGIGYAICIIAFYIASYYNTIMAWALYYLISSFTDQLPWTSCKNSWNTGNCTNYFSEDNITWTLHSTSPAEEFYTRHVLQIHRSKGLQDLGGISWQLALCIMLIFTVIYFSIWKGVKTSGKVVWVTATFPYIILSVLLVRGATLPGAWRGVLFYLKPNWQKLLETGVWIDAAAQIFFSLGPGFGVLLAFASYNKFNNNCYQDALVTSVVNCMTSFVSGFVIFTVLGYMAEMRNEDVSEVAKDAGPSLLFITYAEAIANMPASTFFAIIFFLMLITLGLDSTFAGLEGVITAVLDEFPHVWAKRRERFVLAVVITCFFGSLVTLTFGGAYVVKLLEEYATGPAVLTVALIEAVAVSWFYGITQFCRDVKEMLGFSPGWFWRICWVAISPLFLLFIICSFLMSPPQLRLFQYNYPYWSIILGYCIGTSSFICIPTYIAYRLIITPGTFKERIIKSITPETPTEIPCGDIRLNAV

Histamine H3 receptor = Histamine H3 receptor (Homo sapiens, UniProt Q9Y5N1); assay: Selectivity interaction (GPCR panel (PDSP screen)) EUB0001079a HRH3; conditions: at 10 µM
Histamine H3 receptor, sequence (Q9Y5N1 whole entry): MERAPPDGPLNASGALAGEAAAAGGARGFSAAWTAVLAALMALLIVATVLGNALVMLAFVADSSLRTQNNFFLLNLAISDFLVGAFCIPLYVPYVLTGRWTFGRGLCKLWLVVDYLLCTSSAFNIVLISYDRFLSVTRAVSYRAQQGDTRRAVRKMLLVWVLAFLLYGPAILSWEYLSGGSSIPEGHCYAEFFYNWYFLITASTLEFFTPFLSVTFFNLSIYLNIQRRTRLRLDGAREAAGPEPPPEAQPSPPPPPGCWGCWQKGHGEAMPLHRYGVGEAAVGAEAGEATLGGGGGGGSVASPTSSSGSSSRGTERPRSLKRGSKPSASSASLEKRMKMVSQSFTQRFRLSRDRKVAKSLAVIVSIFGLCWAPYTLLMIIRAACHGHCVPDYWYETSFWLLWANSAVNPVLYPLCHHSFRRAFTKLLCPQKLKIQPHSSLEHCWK

[6] = target: Epidermal growth factor receptor (Homo sapiens, UniProt P00533); assay: (§1) Selectivity interaction (KinomeScan (DiscoverX)) EUB0000092b EGFR; conditions: at 10 µM
[7] = system: Epidermal growth factor receptor (Homo sapiens), P00533 [T790M]; assay: as §1; conditions: at 10 µM
Epidermal growth factor receptor (Homo sapiens), P00533 [T790M], sequence (P00533 whole entry T790M): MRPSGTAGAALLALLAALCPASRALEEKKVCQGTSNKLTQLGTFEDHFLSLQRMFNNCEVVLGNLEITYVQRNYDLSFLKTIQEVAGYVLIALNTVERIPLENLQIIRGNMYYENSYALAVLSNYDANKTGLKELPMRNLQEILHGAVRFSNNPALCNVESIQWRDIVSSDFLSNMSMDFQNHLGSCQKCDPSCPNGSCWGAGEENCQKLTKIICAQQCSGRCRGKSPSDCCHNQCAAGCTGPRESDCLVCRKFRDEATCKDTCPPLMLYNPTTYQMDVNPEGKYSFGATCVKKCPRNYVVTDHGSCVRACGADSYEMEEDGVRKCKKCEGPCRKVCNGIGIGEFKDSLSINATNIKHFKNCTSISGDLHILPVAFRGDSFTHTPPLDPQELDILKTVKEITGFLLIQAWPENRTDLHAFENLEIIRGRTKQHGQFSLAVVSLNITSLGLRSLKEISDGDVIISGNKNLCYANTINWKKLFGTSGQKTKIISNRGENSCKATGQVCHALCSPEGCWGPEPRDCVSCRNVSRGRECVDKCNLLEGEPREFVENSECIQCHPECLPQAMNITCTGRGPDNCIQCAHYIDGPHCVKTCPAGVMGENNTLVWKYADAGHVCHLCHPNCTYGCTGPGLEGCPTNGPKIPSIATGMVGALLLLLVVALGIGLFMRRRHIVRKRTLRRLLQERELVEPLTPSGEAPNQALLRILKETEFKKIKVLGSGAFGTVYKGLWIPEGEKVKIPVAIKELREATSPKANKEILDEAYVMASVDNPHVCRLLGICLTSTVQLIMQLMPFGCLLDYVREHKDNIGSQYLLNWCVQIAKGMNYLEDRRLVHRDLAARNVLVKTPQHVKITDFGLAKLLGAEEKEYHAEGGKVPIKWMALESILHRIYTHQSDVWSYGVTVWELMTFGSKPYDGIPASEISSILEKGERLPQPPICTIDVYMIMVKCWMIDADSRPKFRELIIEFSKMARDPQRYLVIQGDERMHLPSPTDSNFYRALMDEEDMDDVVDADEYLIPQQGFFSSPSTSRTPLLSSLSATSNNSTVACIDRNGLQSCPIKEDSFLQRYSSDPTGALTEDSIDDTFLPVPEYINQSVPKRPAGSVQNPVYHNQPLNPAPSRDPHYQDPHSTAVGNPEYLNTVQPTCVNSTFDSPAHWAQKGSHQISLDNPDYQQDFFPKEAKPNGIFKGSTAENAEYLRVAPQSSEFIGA

[8] = system: Epidermal growth factor receptor (Homo sapiens), P00533 [L858R,T790M]; assay: as §1; conditions: at 10 µM
[9] = system: Epidermal growth factor receptor (Homo sapiens), P00533 [UNDEFINED MUTATION]; assay: as §1; conditions: at 10 µM
[10] = system: Epidermal growth factor receptor (Homo sapiens), P00533 [L858R]; assay: as §1; conditions: at 10 µM
[11] = target: MAP/microtubule affinity-regulating kinase 3 (Homo sapiens) (UniProt P27448); assay: Selectivity interaction (KinomeScan (DiscoverX)) EUB0000618a MARK3; conditions: at 10 µM
[12] = target: Mitogen-activated protein kinase kinase kinase 11 (Homo sapiens) (UniProt Q16584); assay: Selectivity interaction (KinomeScan (DiscoverX)) EUB0001619a MAP3K11; conditions: at 1 µM
Mitogen-activated protein kinase kinase kinase 11 (Homo sapiens), sequence (Q16584 whole entry, looked up): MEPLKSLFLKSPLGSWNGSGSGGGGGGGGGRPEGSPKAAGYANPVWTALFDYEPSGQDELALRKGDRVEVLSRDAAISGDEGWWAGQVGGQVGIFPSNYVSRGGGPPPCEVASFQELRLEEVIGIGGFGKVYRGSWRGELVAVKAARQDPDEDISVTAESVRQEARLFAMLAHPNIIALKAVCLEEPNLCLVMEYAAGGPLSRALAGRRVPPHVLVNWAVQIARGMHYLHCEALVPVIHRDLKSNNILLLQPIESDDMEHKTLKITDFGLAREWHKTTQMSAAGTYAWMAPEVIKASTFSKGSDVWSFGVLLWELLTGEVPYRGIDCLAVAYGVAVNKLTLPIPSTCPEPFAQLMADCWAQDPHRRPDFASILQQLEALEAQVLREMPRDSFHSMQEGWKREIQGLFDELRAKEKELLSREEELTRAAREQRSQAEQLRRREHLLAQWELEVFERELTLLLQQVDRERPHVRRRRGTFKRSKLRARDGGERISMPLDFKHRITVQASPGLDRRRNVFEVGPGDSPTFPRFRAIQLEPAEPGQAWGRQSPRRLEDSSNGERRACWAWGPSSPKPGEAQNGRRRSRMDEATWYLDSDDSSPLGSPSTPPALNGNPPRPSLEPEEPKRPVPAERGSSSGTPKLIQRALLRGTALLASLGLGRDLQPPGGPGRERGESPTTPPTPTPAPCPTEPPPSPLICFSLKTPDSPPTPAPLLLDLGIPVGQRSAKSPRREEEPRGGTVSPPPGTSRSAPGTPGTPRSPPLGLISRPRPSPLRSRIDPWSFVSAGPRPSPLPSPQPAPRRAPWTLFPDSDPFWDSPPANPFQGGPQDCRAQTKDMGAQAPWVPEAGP

[13] = system: Fibroblast growth factor receptor 3 (Homo sapiens), P22607 [G697C]; assay: (§2) Selectivity interaction (KinomeScan (DiscoverX)) EUB0001619a FGFR3; conditions: at 1 µM
[14] = target: Fibroblast growth factor receptor 3 (Homo sapiens, UniProt P22607); assay: as §2; conditions: at 1 µM
Fibroblast growth factor receptor 3, sequence (P22607 23-806 limits assumed): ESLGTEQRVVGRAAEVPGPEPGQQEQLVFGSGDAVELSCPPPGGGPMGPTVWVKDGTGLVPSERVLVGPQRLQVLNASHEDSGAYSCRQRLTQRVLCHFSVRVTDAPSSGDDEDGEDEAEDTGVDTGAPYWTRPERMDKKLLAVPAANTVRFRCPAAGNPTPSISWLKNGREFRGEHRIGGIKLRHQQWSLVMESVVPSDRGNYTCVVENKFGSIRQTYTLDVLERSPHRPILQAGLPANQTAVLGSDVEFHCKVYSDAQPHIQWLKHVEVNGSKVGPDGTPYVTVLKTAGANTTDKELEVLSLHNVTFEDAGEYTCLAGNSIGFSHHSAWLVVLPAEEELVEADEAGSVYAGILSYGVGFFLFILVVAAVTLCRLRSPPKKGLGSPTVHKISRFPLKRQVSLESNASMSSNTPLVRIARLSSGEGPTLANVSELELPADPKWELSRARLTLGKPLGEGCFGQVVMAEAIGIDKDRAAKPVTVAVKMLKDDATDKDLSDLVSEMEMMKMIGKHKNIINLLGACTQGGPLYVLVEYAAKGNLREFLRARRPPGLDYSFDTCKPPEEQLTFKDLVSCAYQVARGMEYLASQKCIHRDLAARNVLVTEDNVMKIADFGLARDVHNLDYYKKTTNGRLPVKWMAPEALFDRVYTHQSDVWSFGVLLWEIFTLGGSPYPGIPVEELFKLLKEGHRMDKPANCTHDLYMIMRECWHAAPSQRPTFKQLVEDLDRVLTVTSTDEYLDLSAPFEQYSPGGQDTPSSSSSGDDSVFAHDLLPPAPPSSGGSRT

[15] = target: RAC-beta serine/threonine-protein kinase (Homo sapiens) (UniProt P31751); assay: Selectivity interaction (Upstate Kinase Profiler service (Millipore)) EUB0000056c AKT2; conditions: at 1 µM
[16] = target: T2, Inhibitor of nuclear factor kappa-B kinase subunit alpha (Homo sapiens) (UniProt O15111); assay: Selectivity interaction (KinomeScan (DiscoverX)) EUB0000607a CHUK; conditions: at 10 µM
T2 sequence (whole entry): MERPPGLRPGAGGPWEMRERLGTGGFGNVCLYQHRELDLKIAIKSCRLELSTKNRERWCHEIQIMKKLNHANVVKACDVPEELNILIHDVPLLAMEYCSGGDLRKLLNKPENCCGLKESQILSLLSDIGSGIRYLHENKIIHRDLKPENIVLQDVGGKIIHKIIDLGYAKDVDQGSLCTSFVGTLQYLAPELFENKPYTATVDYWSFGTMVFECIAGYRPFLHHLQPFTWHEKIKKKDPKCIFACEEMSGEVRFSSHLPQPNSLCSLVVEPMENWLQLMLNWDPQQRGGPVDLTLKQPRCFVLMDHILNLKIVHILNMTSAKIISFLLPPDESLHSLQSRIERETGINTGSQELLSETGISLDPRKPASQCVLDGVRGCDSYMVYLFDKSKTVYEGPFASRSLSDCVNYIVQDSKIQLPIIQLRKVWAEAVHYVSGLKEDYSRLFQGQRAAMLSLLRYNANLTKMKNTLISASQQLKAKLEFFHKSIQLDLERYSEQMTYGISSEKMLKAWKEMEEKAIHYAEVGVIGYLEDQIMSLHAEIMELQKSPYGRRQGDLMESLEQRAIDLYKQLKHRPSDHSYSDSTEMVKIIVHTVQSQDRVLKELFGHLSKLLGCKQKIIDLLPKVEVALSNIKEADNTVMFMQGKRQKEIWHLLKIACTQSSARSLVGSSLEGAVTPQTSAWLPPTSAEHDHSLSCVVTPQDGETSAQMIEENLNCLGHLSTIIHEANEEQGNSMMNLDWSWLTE

[17] = target: Histone-lysine N-methyltransferase ASH1L (Homo sapiens) (UniProt Q9NR48); assay: Selectivity interaction (Methyltransferase screen (radiometric assays, panel of 8 PRMTs, 21 protein lysine methyltransferases, 3 DNA methyltransferases, and one RNA methyltransferase)) EUB0000272b ASH1L
[18] = target: Phosphatidylinositol 3-kinase catalytic subunit type 3 (Homo sapiens, UniProt Q8NEB9); assay: Selectivity interaction (Adapta Assay) EUB0001632a PIK3C3; conditions: at 10 µM
[19] = target: Serine/threonine-protein kinase pim-2 (Homo sapiens, UniProt Q9P1W9); assay: Selectivity interaction (ProQinase) EUB0000171b PIM2
Serine/threonine-protein kinase pim-2, sequence (Q9P1W9 whole entry, looked up): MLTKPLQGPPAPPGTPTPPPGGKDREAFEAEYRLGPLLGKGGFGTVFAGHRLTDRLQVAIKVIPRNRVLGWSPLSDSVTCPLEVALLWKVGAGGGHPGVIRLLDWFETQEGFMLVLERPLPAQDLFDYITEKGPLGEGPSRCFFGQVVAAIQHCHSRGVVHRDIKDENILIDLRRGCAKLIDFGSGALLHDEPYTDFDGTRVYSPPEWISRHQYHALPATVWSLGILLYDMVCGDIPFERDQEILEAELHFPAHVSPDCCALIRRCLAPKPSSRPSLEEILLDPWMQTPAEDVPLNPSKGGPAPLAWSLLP

[20] = target: Eukaryotic translation initiation factor 2-alpha kinase 1 (Homo sapiens) (UniProt Q9BQI3); assay: Selectivity interaction (ProQinase) EUB0000171b EIF2AK1
Eukaryotic translation initiation factor 2-alpha kinase 1 (Homo sapiens), sequence (Q9BQI3 whole entry): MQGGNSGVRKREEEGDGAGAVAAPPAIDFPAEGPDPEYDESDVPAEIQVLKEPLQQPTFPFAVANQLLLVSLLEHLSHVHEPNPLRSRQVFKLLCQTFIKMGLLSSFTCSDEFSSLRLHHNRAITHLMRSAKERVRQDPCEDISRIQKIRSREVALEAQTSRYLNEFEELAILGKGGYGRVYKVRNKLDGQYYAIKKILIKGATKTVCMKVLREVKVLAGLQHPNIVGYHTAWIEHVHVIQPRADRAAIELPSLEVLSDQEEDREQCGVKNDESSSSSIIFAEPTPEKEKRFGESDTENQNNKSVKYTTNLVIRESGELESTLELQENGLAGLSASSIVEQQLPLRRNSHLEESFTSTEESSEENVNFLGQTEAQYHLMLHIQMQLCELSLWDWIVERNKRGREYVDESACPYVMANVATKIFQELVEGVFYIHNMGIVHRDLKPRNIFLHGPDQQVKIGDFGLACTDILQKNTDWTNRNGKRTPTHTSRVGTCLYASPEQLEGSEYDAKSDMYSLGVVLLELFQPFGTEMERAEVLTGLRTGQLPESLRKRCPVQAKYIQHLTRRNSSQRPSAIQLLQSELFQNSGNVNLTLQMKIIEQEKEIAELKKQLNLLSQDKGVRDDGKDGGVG

With O=C(NOC[C@H](O)CO)c1ccc(F)c(F)c1Nc1ccc(I)cc1F the % of control [1] was 98%.
COc1cc(N(C)c2ccnc3ccc(C(F)(F)F)cc23)cc(OC)c1OC gave a % binding [2] of 70%.
Compound Nc1cnc(N2CCc3cc(S(=O)(=O)Nc4c(F)cc(Cl)cc4F)cc(N4CCCC4=O)c32)nc1 [TP-020n] has a % of control [3] of 100%, a % of control [4] of 100% and a % of inhibition [5] of 9.34%. The % of inhibition (Histamine H3 receptor) was -1.21%.
With CCC(=O)N1CCN(c2ccc(-n3c(=O)ccc4cnc5ccc(-c6cnc7ccccc7c6)cc5c43)cc2C(F)(F)F)CC1 the % of control [6] was 85%, the % of control [7] was 100% and the % of control [8] was 100%. For the same compound, the % of control [9] was 100% and the % of control [10] was 100%.
Compound O[C@H]1CC[C@H](Nc2ncc3nc(Nc4c(F)cc(F)cc4F)n([C@H]4CCOC4)c3n2)CC1 has a % of control [11] of 97%.
With N#Cc1cccc(-c2c[nH]c3ncnc(N4CCOCC4)c23)c1 the % of control [12] was 100%, the % of control [13] was 100% and the % of control [14] was 100%.
Cc1ccc(-c2ccc3c(ccc4sc5c(c43)NC[C@@H](C)NC5=O)n2)cn1 gave a % of inhibition [15] of -9%.
In the case of CNC(=O)Nc1ccc(-c2nc(N3CC4CCC(C3)O4)c3cnn(C4CCC5(CC4)OCCO5)c3n2)cc1, the % of control [16] is reported as 100%.
Work on Cc1cc(C)cc([C@H]2c3cc(C)ccc3NC(=O)CN2C(=O)c2ccc(Br)s2)c1 yielded a % of activity ([17]; at 1 µM) of 102% and a % of activity ([17]; at 10 µM) of 99.7%.
Cn1cc(-n2cnc3c(NCc4nc5cc(Cl)c(Cl)cc5[nH]4)nc(N4CCOCC4)nc32)cn1 showed a % of inhibition [18] of -28%.
For C=CC(=O)Nc1cccc(C(=O)Nc2ccc(Nc3cc(-c4[nH]c(SC)nc4C)ccn3)cc2)c1, the % of control ([19]; at 1 µM) was 101%, the % of control ([19]; at 5 µM) was 69% and the % of control ([20]; at 1 µM) was 85%. The % of control ([20]; at 5 µM) was 66%.
